According to patent US10323036B2 (Nimbus Lakshmi, Inc., priority 2016, dated 2019):

Molecular target: human TYK2 (JH2domain-pseudokinase) (Homo sapiens (Human), UniProt P29597)
Test: TYK2 JH2 Domain Binding Assay (KINOMEscan)
Conditions: Table 4, JH2 binding assay; read-out: JH2 Kd

Sequence of human TYK2 (JH2domain-pseudokinase) (P29597 556-888): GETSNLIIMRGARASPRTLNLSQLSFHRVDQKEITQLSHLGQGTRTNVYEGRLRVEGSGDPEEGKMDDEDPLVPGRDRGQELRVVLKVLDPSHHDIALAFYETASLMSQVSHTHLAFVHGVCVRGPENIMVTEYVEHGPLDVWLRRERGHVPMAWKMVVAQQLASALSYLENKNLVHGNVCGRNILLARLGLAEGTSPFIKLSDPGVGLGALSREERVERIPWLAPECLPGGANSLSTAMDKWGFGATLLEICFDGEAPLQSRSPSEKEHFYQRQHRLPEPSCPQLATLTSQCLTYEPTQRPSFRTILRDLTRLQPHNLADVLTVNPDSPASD

| Kd | SMILES |
| --- | --- |
| 0.1 to 0.5 nM | Cn1[nH]c2nc(Nc3ccc(C4CC4)cn3)cc(Nc3ccccc3S(C)(=O)=O)c2c1=O [Compound I-143, 6-((5-cyclopropylpyridin-2-yl)amino)-2-methyl-4-((2-(methylsulfonyl)phenyl)amino)-1,2-dihydro-3H-pyrazolo[3,4-b]pyridin-3-one] |
| 0.1 to 0.5 nM | COc1c(Cl)cccc1Nc1cc(Nc2ccc(N3CC[C@H](OC)C3)c(C#N)n2)nc2[nH]n(C)c(=O)c12 [Compound I-145, (S)-6-((4-((3-chloro-2-methoxyphenyl)amino)-2-methyl-3-oxo-2,3-dihydro-1H-pyrazolo[3,4-b]pyridin-6-yl)amino)-3-(3-methoxypyrrolidin-1-yl)picolinonitrile] |
| > 10 nM | COc1c(Cl)cccc1Nc1cc(Nc2cnc(C3CC3)c(C#N)n2)nc2[nH]n(C)c(=O)c12 [Compound I-146, 6-((4-((3-chloro-2-methoxyphenyl)amino)-2-methyl-3-oxo-2,3-dihydro-1H-pyrazolo[3,4-b]pyridin-6-yl)amino)-3-cyclopropylpyrazine-2-carbonitrile] |
| > 10 nM | CCc1ncc(Nc2cc(Nc3cccc(Cl)c3OC)c3c(=O)n(C)[nH]c3n2)nc1C#N [Compound I-147, 6-((4-((3-chloro-2-methoxyphenyl)amino)-2-methyl-3-oxo-2,3-dihydro-1H-pyrazolo[3,4-b]pyridin-6-yl)amino)-3-ethylpyrazine-2-carbonitrile] |
| > 10 nM | CCc1ncc(Nc2cc(Nc3cccc(F)c3OC)c3c(=O)n(C)[nH]c3n2)nc1C#N [Compound I-148, 3-ethyl-6-((4-((3-fluoro-2-methoxyphenyl)amino)-2-methyl-3-oxo-2,3-dihydro-1H-pyrazolo[3,4-b]pyridin-6-yl)amino)pyrazine-2-carbonitrile] |
| 0.5 to 1 nM | COc1c(Cl)cccc1Nc1cc(Nc2cnc(C(C)(C)OC)c(C#N)n2)nc2[nH]n(C)c(=O)c12 [Compound I-155, 6-((4-((3-chloro-2-methoxyphenyl)amino)-2-methyl-3-oxo-2,3-dihydro-1H-pyrazolo[3,4-b]pyridin-6-yl)amino)-3-(2-methoxypropan-2-yl)pyrazine-2-carbonitrile] |
| > 10 nM | COc1c(Cl)cccc1Nc1cc(Nc2ccc(C(F)F)c(C#N)n2)nc2[nH]n(C)c(=O)c12 [Compound I-156, 6-((4-((3-chloro-2-methoxyphenyl)amino)-2-methyl-3-oxo-2,3-dihydro-1H-pyrazolo[3,4-b]pyridin-6-yl)amino)-3-(difluoromethyl)picolinonitrile] |
| 0.5 to 1 nM | Cc1ccc(Nc2cc(Nc3ccc(Cl)cc3S(C)(=O)=O)c3c(=O)n(C)[nH]c3n2)nn1 [Compound I-157, 4-((4-chloro-2-(methylsulfonyl)phenyl)amino)-2-methyl-6-((6-methylpyridazin-3-yl)amino)-1,2-dihydro-3H-pyrazolo[3,4-b]pyridin-3-one] |
| > 10 nM | COc1c(Cl)cccc1Nc1cc(Nc2cnc(C(C)C)c(C#N)n2)nc2[nH]n(C)c(=O)c12 [Compound I-158, 6-((4-((3-chloro-2-methoxyphenyl)amino)-2-methyl-3-oxo-2,3-dihydro-1H-pyrazolo[3,4-b]pyridin-6-yl)amino)-3-isopropylpyrazine-2-carbonitrile] |
| 0.5 to 1 nM | COc1c(F)cccc1Nc1cc(Nc2cnc(C(C)(C)OC)c(C#N)n2)nc2[nH]n(C)c(=O)c12 [Compound I-190, 6-((4-((3-fluoro-2-methoxyphenyl)amino)-2-methyl-3-oxo-2,3-dihydro-1H-pyrazolo[3,4-b]pyridin-6-yl)amino)-3-(2-methoxypropan-2-yl)pyrazine-2-carbonitrile] |
| > 10 nM | COc1c(F)cccc1Nc1cc(Nc2ccc(C(F)F)c(C#N)n2)nc2[nH]n(C)c(=O)c12 [Compound I-191, 3-(difluoromethyl)-6-((4-((3-fluoro-2-methoxyphenyl)amino)-2-methyl-3-oxo-2,3-dihydro-1H-pyrazolo[3,4-b]pyridin-6-yl)amino)picolinonitrile] |
| 0.1 to 0.5 nM | Cc1ccc(Nc2cc(Nc3ccc(F)cc3S(C)(=O)=O)c3c(=O)n(C)[nH]c3n2)nn1 [Compound I-198, 4-((4-fluoro-2-(methylsulfonyl)phenyl)amino)-2-methyl-6-((6-methylpyridazin-3-yl)amino)-1,2-dihydro-3H-pyrazolo[3,4-b]pyridin-3-one] |
| 0.1 to 0.5 nM | Cc1cc(Nc2cc(Nc3ccc(Cl)cc3S(C)(=O)=O)c3c(=O)n(C)[nH]c3n2)nc(C)n1 [Compound I-199, 4-((4-chloro-2-(methylsulfonyl)phenyl)amino)-6-((2,6-dimethylpyrimidin-4-yl)amino)-2-methyl-1,2-dihydro-3H-pyrazolo[3,4-b]pyridin-3-one] |
| 0.5 to 1 nM | Cn1[nH]c2nc(Nc3cccc(C#N)n3)cc(Nc3ccc(Cl)cc3S(C)(=O)=O)c2c1=O [Compound I-203, 6-((4-((4-chloro-2-(methylsulfonyl)phenyl)amino)-2-methyl-3-oxo-2,3-dihydro-1H-pyrazolo[3,4-b]pyridin-6-yl)amino)picolinonitrile] |
| 1 to 10 nM | Cc1ncc(Nc2cc(Nc3ccc(Cl)cc3S(C)(=O)=O)c3c(=O)n(C)[nH]c3n2)nc1C [Compound I-207, 4-((4-chloro-2-(methylsulfonyl)phenyl)amino)-6-((5,6-dimethylpyrazin-2-yl)amino)-2-methyl-1,2-dihydro-3H-pyrazolo[3,4-b]pyridin-3-one] |
| 0.5 to 1 nM | Cc1ccc(Nc2cc(Nc3ccc(Cl)cc3S(C)(=O)=O)c3c(=O)n(C)[nH]c3n2)nc1C(F)(F)F [Compound I-208, 4-((4-chloro-2-(methylsulfonyl)phenyl)amino)-2-methyl-6-((5-methyl-6-(trifluoromethyl)pyridin-2-yl)amino)-1,2-dihydro-3H-pyrazolo[3,4-b]pyridin-3-one] |
| 0.5 to 1 nM | Cn1[nH]c2nc(Nc3cccc(C(F)(F)F)n3)cc(Nc3ccc(Cl)cc3S(C)(=O)=O)c2c1=O [Compound I-209, 4-((4-chloro-2-(methylsulfonyl)phenyl)amino)-2-methyl-6-((6-(trifluoromethyl)-pyridin-2-yl)amino)-1,2-dihydro-3H-pyrazolo[3,4-b]pyridin-3-one] |

| SMILES | Kd |
| --- | --- |
| COc1c(Cl)cccc1Nc1cc(Nc2ccc(N3CCC3)c(C#N)n2)nc2[nH]n(C)c(=O)c12 [Compound I-144, 3-(azetidin-1-yl)-6-((4-((3-chloro-2-methoxyphenyl)amino)-2-methyl-3-oxo-2,3-dihydro-1H-pyrazolo[3,4-b]pyridin-6-yl)amino)picolinonitrile] | 0.1 to 0.5 nM |
| COc1c(Nc2cc(NC(=O)C3CC3)nc3[nH]n(C)c(=O)c23)cccc1-n1nc(C)c(C)n1 [Compound I-149] | > 10 nM |
| Cn1[nH]c2nc(NC(=O)C3CC3)cc(Nc3ccc(C(=O)N4CCCC4)cc3OC(F)F)c2c1=O [Compound I-151] | > 10 nM |
| CCc1ccc(Nc2cc(NC(=O)C3CC3)nc3[nH]n(C)c(=O)c23)c(S(C)(=O)=O)c1 [Compound I-152, N-(4-((4-ethyl-2-(methylsulfonyl)phenyl)amino)-2-methyl-3-oxo-2,3-dihydro-1H-pyrazolo[3,4-b]pyridin-6-yl)cyclopropanecarboxamide] | 0.5 to 1 nM |
| Cn1[nH]c2nc(NC(=O)C3CC3)cc(Nc3ccc(C4CCC4)cc3S(C)(=O)=O)c2c1=O [Compound I-182, N-(4-((4-cyclobutyl-2-(methylsulfonyl)phenyl)amino)-2-methyl-3-oxo-2,3-dihydro-1H-pyrazolo[3,4-b]pyridin-6-yl)cyclopropanecarboxamide] | 0.1 to 0.5 nM |
| Cn1[nH]c2nc(NC(=O)C3CC3)cc(Nc3ccc(C4CC4)cc3S(C)(=O)=O)c2c1=O [Compound I-201, N-(4-((4-cyclopropyl-2-(methylsulfonyl)phenyl)amino)-2-methyl-3-oxo-2,3-dihydro-1H-pyrazolo[3,4-b]pyridin-6-yl)cyclopropanecarboxamide] | < 0.1 nM |
| Cc1cc(Nc2cc(Nc3ccc(C4CC4)cc3S(C)(=O)=O)c3c(=O)n(C)[nH]c3n2)nc(C)n1 [Compound I-206, 4-((4-cyclopropyl-2-(methylsulfonyl)phenyl)amino)-6-((2,6-dimethylpyrimidin-4-yl)amino)-2-methyl-1,2-dihydro-3H-pyrazolo[3,4-b]pyridin-3-one] | 0.5 to 1 nM |
| Cn1[nH]c2nc(NC(=O)[C@@H]3C[C@@H]3F)cc(Nc3ccc(C4CC4)cc3S(C)(=O)=O)c2c1=O [Compound I-210] | 0.1 to 0.5 nM |
| Cc1ncc(Nc2cc(Nc3ccc(C4CC4)cc3S(C)(=O)=O)c3c(=O)n(C)[nH]c3n2)nc1C [Compound I-211, 4-((4-cyclopropyl-2-(methylsulfonyl)phenyl)amino)-6-((5,6-dimethylpyrazin-2-yl)amino)-2-methyl-1,2-dihydro-3H-pyrazolo[3,4-b]pyridin-3-one] | 0.5 to 1 nM |
| Cn1[nH]c2nc(Nc3cncc(C#N)n3)cc(Nc3ccc(C4CC4)cc3S(C)(=O)=O)c2c1=O [Compound I-212, 6-((4-((4-cyclopropyl-2-(methylsulfonyl)phenyl)amino)-2-methyl-3-oxo-2,3-dihydro-1H-pyrazolo[3,4-b]pyridin-6-yl)amino)pyrazine-2-carbonitrile] | > 10 nM |
| Cn1[nH]c2nc(Nc3ccc(C#N)cn3)cc(Nc3ccc(C4CC4)cc3S(C)(=O)=O)c2c1=O [Compound I-213, 6-((4-((4-cyclopropyl-2-(methylsulfonyl)phenyl)amino)-2-methyl-3-oxo-2,3-dihydro-1H-pyrazolo[3,4-b]pyridin-6-yl)amino)nicotinonitrile] | 0.1 to 0.5 nM |
| COCc1ccnc(Nc2cc(Nc3ccc(C4CC4)cc3S(C)(=O)=O)c3c(=O)n(C)[nH]c3n2)c1 [Compound I-214, 4-((4-cyclopropyl-2-(methylsulfonyl)phenyl)amino)-6-((4-(methoxymethyl)pyridin-2-yl)amino)-2-methyl-1,2-dihydro-3H-pyrazolo[3,4-b]pyridin-3-one] | 0.1 to 0.5 nM |
| Cn1[nH]c2nc(Nc3cccc(C(F)(F)F)n3)cc(Nc3ccc(C4CC4)cc3S(C)(=O)=O)c2c1=O [Compound I-215, 4-((4-cyclopropyl-2-(methylsulfonyl)phenyl)amino)-2-methyl-6-((6-(trifluoromethyl)pyridin-2-yl)amino)-1,2-dihydro-3H-pyrazolo[3,4-b]pyridin-3-one] | 0.1 to 0.5 nM |
